The values below come from paper PMC5947712, “High‐Throughput Kinetic Analysis for Target‐Directed Covalent Ligand Discovery” (Angewandte Chemie (International Ed. in English), 2018).

One assay has as its target T1, Cdk1 (Homo sapiens, UniProt P06493).
T1 construct: endogenous in cells; host or cells: HeLa
Kind of assay: In-cell target engagement: CuAAC biotin tagging, Neutravidin pulldown, anti-Cdk1 western blot. It is filed as cell-based. The settings on record: HeLa cells, 6 hours treatment. The method, then:
(§1) To evaluate whether this in vitro activity would translate into in‐cell target engagement, acrylamide 3 (REFCdk2(WT)=5.6, k GSH=0.033 h^−1, k Cdk2(WT)=0.185 h^−1) was synthesized as a target engagement probe, containing an alkyne handle for bio‐orthogonal ligation. HeLa cells were treated with probe 3 and protein lysates subjected to copper(I) catalyzed azide–alkyne cycloaddition (CuAAC)30 to affect biotin conjugation.
(§2) Figure 7 HeLa cells were treated with 3 for 6 hours. After tagging with biotin‐azide, Neutavidin pulldown was performed. Western blot analysis (anti‐Cdk2 and Cdk1) was performed before (Lysate) and after pulldown (PD).
(§3) 100Rfold! dilution! gave! the! optimum! seed! concentration! for! subsequent! crystallization.!Ligand" conjugated" Cdk2:!Crystallisation!
(§4) was! performed! by! mixing! 1! µL! of! labelled! Cdk2! solution! (8! mg! mLR1,! 100! mM! phosphate! buffer)! with! 0.5! µL! of! reservoir! soluR
(§5) tion! (Jeffamine! EDR2003! concentration! range! 18!R!30%! w/v,! 100! mM! HEPES,! pH! range! 7.5!–!8.5)! and! 0.5! µL! diluted! apoR
(§6) Cdk2(WT)!microseed!stock.!For!labelled!Cdk2(WT),!crystals!appeared!within!2–3!days!and!grew!for!another!10–14!days.!
(§7) L.,Molecular,dynamics,simulation, […]
(§8) maps!were!calculated!using!FFT[20]!and!figures!were!prepared!using!PyMol!(Schrödinger).! […]
(§9) Phosphorylation! of! […] Cdk2! during! gel! electrophoresis! and! the! reaction! was! monitored! by! […]

A short description of assay [1]: qIT (quantitative irreversible tethering) thiol consumption assay with glutathione. Particulars: compound 0.5 mM, glutathione 5 μM, TCEP-agarose 2 % w/v.
Procedure: To measure the kinetics of electrophile‐thiol conjugation we developed quantitative irreversible tethering (qIT), a technique which employs fluorogenic thiol quantification (FTQ) in a high‐throughput thiol consumption assay (Figure 1 a). […] We solved this problem using an immobilized reducing agent (TCEP‐agarose, 2 % w/v), allowing facile separation by centrifugation before conducting the FTQ step (Figure 1 b).
The target thiol (5 μM) is reacted with electrophilic fragments (0.5 mM) under pseudo‐first‐order conditions in the presence of TCEP‐agarose (2 % w/v). Reaction progress is followed by discrete measurements of residual target thiol concentration using the fluorogenic probe CPM and rate constants are derived from exponential regression analysis. b) TCEP‐agarose prevents aerobic thiol oxidation. Glutathione solutions were stored ±TCEP‐agarose (2 % w/v).
Electrophiles were individually reacted with glutathione under pseudo‐first‐order conditions in the presence of TCEP‐agarose. […] Fluorescence measurements were normalized against a DMSO control and exponential regressions used to determine rate constants.
ReactionBplate" setup:!Each! well! of! a! 96Rwell! PCR! plate! was! charged! with! 60–100! µL! of! target! thiol! (GSH! or! protein,! 10! µM)!
and! 4%! w/v! TCEPRagarose! beads! in! 100! mM! phosphate! buffer! (pH! 7.5! or! 8)! and! cooled! to! 4! ˚C.! Reactions! were! started! by!
addition! of! an! equal! volume! of! preRcooled! electrophile! solution! (1! mM,! 2%! DMSO)! in! 0.1! M! phosphate! buffer! (final! concentraR
tion:! thiol! =! 5! µM,! electrophile! =! 0.5! mM,! 2%! w/v! TCEPRagarose! beads),! with! a! minimum! of! 4! wells! per! plate! used! as!
DMSO/thiol! only! controls.! After! mixing,! TCEPRagarose! was! pelleted! by! centrifugation! (1,300! rpm,! 1! min)! and! the! plate! incuR
bated!at!4!˚C.,CPM"Quench:! At! a! series! of! time! points!
The target of a further assay is T2, Cdk2 (Homo sapiens, UniProt P24941).
T2 construct: endogenous in cells; host or cells: HeLa
Kind of assay: In-cell target engagement: CuAAC biotin tagging, Neutravidin pulldown, anti-Cdk2 western blot. It is filed as cell-based. The settings on record: HeLa cells, 6 hours treatment. The method, then:
as §1, §2, §3, §4, §5, §6, §7, §8, §9

A further assay deals with Cdk2(WT) (Homo sapiens, UniProt P24941). Kind of assay: qIT thiol consumption assay with Cdk2(WT) (Cys177). Type of assay: binding. On the set-up: made in house; host or cells: E. coli Tuner(DE3).

T1 sequence (P06493 whole entry): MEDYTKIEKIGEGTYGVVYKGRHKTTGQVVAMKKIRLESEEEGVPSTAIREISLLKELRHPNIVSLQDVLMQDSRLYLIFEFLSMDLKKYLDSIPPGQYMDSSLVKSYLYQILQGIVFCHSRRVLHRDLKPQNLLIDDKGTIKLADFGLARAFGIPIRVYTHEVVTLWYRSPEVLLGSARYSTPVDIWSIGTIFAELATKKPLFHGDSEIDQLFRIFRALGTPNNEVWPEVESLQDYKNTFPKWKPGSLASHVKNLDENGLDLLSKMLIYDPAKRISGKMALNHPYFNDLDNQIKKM

With `C#CCNC(=O)N1CCN(C(=O)C=C)c2ccccc21` [Acrylamide 3], the “isolation of Cdk1 after pull-down (western blot)” value on Cdk1 is “not isolated”. For the same compound, in assay [1], the “k GSH (pseudo-first-order rate constant)” value came out at 0.033 h⁻¹. In addition, the “enrichment of Cdk2 after pull-down (western blot)” value on Cdk2 was “concentration‐dependent enrichment”. The “k Cdk2(WT) (pseudo-first-order rate constant)” value on Cdk2(WT) (compound 0.5 mM, Cdk2(WT) 5 μM, TCEP-agarose 2 % w/v) was determined as 0.185 h⁻¹. Also, the “REF Cdk2(WT) (rate enhancement factor = k protein/k GSH)” value on Cdk2(WT) (k Cdk2(WT)/k GSH) was determined as 5.6.
